Assay results as given in patent US11072628B2, “Nucleoside analogues for the treatment of parasitic infections” (UNIVERSITEIT GENT, priority 2017, dated 2021).
Several values for one entry are separate records, joined by “and”; a condition that tells them apart may be missing. Equal values may be shown once. Read-outs that look alike come from different tables or passages of the source.

Assays:
[1] = tested on: T. b. rhodesiense STIB-900; test: In vitro drug susceptibility, T. b. rhodesiense STIB-900 (resazurin); assay type: cell-based, Trypanosoma brucei rhodesiense
Description: (§1) All trypanosome strains were cultured in the standard HMI-9 medium supplemented with 10% fetal bovine serum (FBS) at 37° C. in a 5% CO2 atmosphere.

[2] = Cytotoxicity against MRC-5 fibroblasts; settings: human
Description: (§2) Cytotoxicity was assayed against MRC-5 fibroblasts. Results are depicted in Tables 4 and 5.

[3] = tested on: T. cruzi Tulahuen CL2 β galactosidase strain; test: T. cruzi Tulahuen CL2 β galactosidase strain on MRC-5SV2 cells (CPRG); assay type: cell-based, Trypanosoma cruzi
Description: All cultures and assays were conducted at 37° C./5% CO2. […] The results were expressed as % reduction in parasite burdens compared to control wells from which an EC50 was calculated.

[4] = tested on: T. vaginalis trophozoites (metronidazole susceptible G3 strain); test: Trichomonas vaginalis in vitro assay; assay type: cell-based; settings: average of 2-5 independent replicates
Description: T. vaginalis trophozoites (metronidazole susceptible G3 strain) were grown in vitro in modified Diamond's media (MDM) with 10% heat inactivated horse serum (HIHS) acquired from Gibco Life Technologies. After medium preparation, the pH was adjusted to 6.3-6.4 employing 1.0 M aq. HCl. Parasites cultures were passaged every day by taking 1 mL of cell culture into a 25 mL bottle of fresh media to ensure the cells were kept at the appropriate concentration of ˜2×10^6 cells/mL. The culture flasks were filled completely and tightly capped to provide the cells with an anaerobic environment. The parasites were maintained in incubation at 37° C. When culturing in multiwell plates, the plates were sealed with Nescofilm® and inserted in BD GasPak EZ pouches (BD Diagnostics, UK) in order to create anaerobic conditions. Assays were performed with 5×10^4 trophozoites/well (100 μL) to which compound dilutions were added (100 μL). Outside wells of columns and rows were filled with 200 μL of sterile water. Plates were sealed with Nescofilm® and incubated under anaerobic conditions as described above. After 24 h, 30 μL of assay dye solution (resorufin) was added, and incubated for 1-2 h before being read using Fluostar Optima (BMG Labtech, UK) at an excitation wavelength of 544 nm and an emission wavelength of 620 nm.

T. brucei Squib 427 = test: In vitro drug susceptibility, T. brucei Squib 427 (resazurin); assay type: cell-based, Trypanosoma brucei brucei; settings: for selectivity index (SI) for T. b. brucei: MRC-5 versus T. b. brucei
Description: as §1

T. b. brucei Squib 427 = test: In vivo antiparasitic activity in mice (T. brucei; acute model); parameters: species or system Trypanosoma brucei brucei; settings: for clinical symptoms of trypanosomiasis / parasitemia: infected mice, 5 consecutive days, test compound 25 mg/kg PO b.i.d. (FH7429_D also 10 mg/kg s.i.d. IP), suramin 10 mg/kg
Description: The test compound of the invention was formulated in 10% (V/V) PEG400 in water at 2 mg/mL and was freshly prepared at every administration. The test compound was administered orally (PO) b.i.d. for 5 days at 25 mg/kg. The reference drug suramin was formulated in PBS at 2.5 mg/mL and administered s.i.d. IP for 5 days at 10 mg/kg. Treatment was initiated ½ hour prior to the IP infection.

MRC-5 fibroblasts = test: Cytotoxicity against MRC-5 fibroblasts; settings: read-out: MRC-5 EC50, cytotoxicity
Description: as §2

[5] = tested on: T. b. brucei Lister 427 (wild-type); test: Drug susceptibility test, Lister 427WT (resazurin); assay type: cell-based; settings: Trypanosoma brucei, read-out: Lister-427 EC50
Description: (§3) Fluorescence was determined using a FLUOstar Optima (BMG Labtech, Durham, N.C.) and the results fitted to a sigmoid curve with variable slope using Prism 5.0 (GraphPad, San Diego, Ca).

T. b. brucei ISMR1 = test: microbe, parasite or virus in culture; assay type: cell-based, Trypanosoma brucei brucei; settings: for EC50: Trypanosoma brucei, read-out: ISMR1 EC50; for RF (resistance factor) ISMR1: ratio of EC50 between ISMR1 and Lister-427
Description: as §3

T. b. brucei TbAT1-KO = test: microbe, parasite or virus in culture; assay type: cell-based, Trypanosoma brucei brucei; settings: for EC50: Trypanosoma brucei, read-out: TbAT1-KO EC50; for RF (resistance factor) TbAT1-KO: ratio of EC50 between TbAT1-KO and Lister-427
Description: as §3

T. b. brucei B48 = test: microbe, parasite or virus in culture; assay type: cell-based, Trypanosoma brucei brucei; settings: for EC50: Trypanosoma brucei, read-out: B48 EC50; for RF (resistance factor) B48: ratio of EC50 between B48 and Lister-427
Description: as §3

[6] = Trypanosoma brucei, RHODESIENSE, read-out: T.b. rhod. EC50
[7] = MRC-5 fibroblasts, MRC-5 EC50, Table 4, cytotoxicity
[8] = MRC-5 fibroblasts, MRC-5 EC50, Table 5, cytotoxicity
[9] = Trypanosoma cruzi, TULAHUEN, MRC-5 SV2, Table 5, average of 2-4 independent replicates
[10] = Trypanosoma brucei, read-out: EC50 against T. brucei
[11] = Trypanosoma brucei, read-out: T.b. brucei EC50, Table 4, average of 2-6 independent determinations
[12] = Table 1, average of 2-4 independent determinations, read-out: T. brucei rhod. EC50
[13] = Table 2, average of 2-3 independent replicates
[14] = Table 1, average of 2-4 independent determinations, read-out: T. brucei brucei EC50

SMILES	EC50 [1, 6] [µM]	EC50 [2, 7] [µM]	EC50 [2, 8] [µM]	EC50 [3, 9] [µM]	EC50 ([4]; Trichomonas vaginalis, Table 6) [µM]	melting point	EC50 (T. brucei Squib 427; [11]) [µM]	EC50 (T. b. brucei ISMR1) [µM]	EC50 (T. b. brucei TbAT1-KO) [µM]	RF (resistance factor) TbAT1-KO (T. b. brucei TbAT1-KO)	EC50 (T. b. brucei B48) [µM]	EC50 [5] [µM]	further results
Nc1ncnc2c1c(-c1ccc(F)cc1)cn2[C@@H]1O[C@H](CO)[C@@H](O)[C@H]1O [MS1001, 4-amino-5-(4-fluorophenyl)-N7-(β-D-ribofuranosyl)-pyrrolo[2,3-d]pyrimidine]	14.7	> 64	> 64	0.49	0.11	145 to 148 °C (dec.)	8.81	–	–	–	–	–	EC50 (T. brucei Squib 427; [10]): < 10 µM
Nc1ncnc2c1c(-c1cccc(Cl)c1)cn2[C@@H]1O[C@H](CO)[C@@H](O)[C@H]1O [FH8459, 4-amino-5-(3-chlorophenyl)-N7-(β-D-ribofuranosyl)-pyrrolo[2,3-d]pyrimidine]	6.88	32.8	32.8	1.42	0.24	135 °C	9.9	–	–	–	–	–	EC50 (T. brucei Squib 427; [10]): < 10 µM
Cc1ccc(-c2cn([C@@H]3O[C@H](CO)[C@@H](O)[C@H]3O)c3ncnc(N)c23)cc1 [TH1011, 4-amino-5-(4-methylphenyl)-N7-(β-D-ribofuranosyl)-pyrrolo[2,3-d]pyrimidine]	–	26.2	26.2	1.5	0.06	165 °C	29.1	–	–	–	–	–	–
Cc1ccc(C(=O)Nc2ccc(S(=O)(=O)O)c3cc(S(=O)(=O)O)cc(S(=O)(=O)O)c23)cc1NC(=O)c1cccc(NC(=O)Nc2cccc(C(=O)Nc3cc(C(=O)Nc4ccc(S(=O)(=O)O)c5cc(S(=O)(=O)O)cc(S(=O)(=O)O)c45)ccc3C)c2)c1 [Suramin, reference compound]	–	–	–	–	–	–	–	–	–	–	–	–	EC50 ([1]; Trypanosoma brucei, RHODESIENSE, Table 1, average of 2-4 independent determinations, read-out: T. brucei rhod. EC50): 0.04 µM; EC50 ([1]; Trypanosoma brucei, RHODESIENSE, Table 4, average of 2-6 independent determinations, read-out: T.b. rhod. EC50): 0.04 µM; clinical symptoms of trypanosomiasis / parasitemia (T. b. brucei Squib 427): no symptoms nor parasitemia developed; EC50 (T. brucei Squib 427; Trypanosoma brucei, Table 1, average of 2-4 independent determinations, read-out: T. brucei brucei EC50): 0.05 µM; EC50 (T. brucei Squib 427; Trypanosoma brucei, Table 4, average of 2-6 independent determinations, read-out: T.b. brucei EC50): 0.05 µM
Nc1ncnc2c1c(-c1ccc3ccccc3c1)cn2[C@@H]1O[C@H](CO)[C@@H](O)[C@H]1O [FH8461, 4-amino-5-(2-naftyl)-N7-(β-D-ribofuranosyl)-pyrrolo[2,3-d]pyrimidine]	–	–	–	–	–	–	–	–	–	–	–	–	EC50 ([1]; Table 4, average of 2-6 independent determinations, read-out: T.b. rhod. EC50): 6.79 µM; EC50 (MRC-5 fibroblasts; Table 4): 7.53 µM; EC50 (MRC-5 fibroblasts; Table 5): 7.53 µM; EC50 ([3]; Table 5, average of 2-4 independent replicates): 2.48 µM; EC50 ([4]; Table 6): 0.58 µM; EC50 (T. brucei Squib 427; Table 4, average of 2-6 independent determinations, read-out: T.b. brucei EC50): 7.83 µM
COc1ccc(-c2cn([C@@H]3O[C@H](CO)C[C@H]3O)c3ncnc(N)c23)cc1 [FH8494, 4-amino-5-(4-methoxyphenyl)-N7-(3′-deoxy-β-D-ribofuranosyl)-pyrrolo[2,3-d]pyrimidine]	–	–	–	–	–	–	–	–	–	–	–	–	EC50 [1, 12]: 1.2 µM; EC50 (MRC-5 fibroblasts; Table 1): 24.3 µM; EC50 (MRC-5 fibroblasts; Table 2): 24.3 µM; EC50 [3, 13]: 2.4 µM; EC50 ([4]; Table 3): 0.73 µM; EC50 (T. brucei Squib 427; [14]): 3.7 µM
N=C(N)c1ccc(OCCCCCOc2ccc(C(=N)N)cc2)cc1 [Pentamidine]	–	–	–	–	–	–	–	0.14 ± 0.04	0.018 ± 0.002	1.8	0.99 ± 0.16	–	EC50 ([5]; reference cell line): 0.011 ± 0.001 µM
N=C(N)c1ccc(/N=N/Nc2ccc(C(=N)N)cc2)cc1 [Diminazene]	–	–	–	–	–	–	–	2.9 ± 0.42	4.5 ± 0.9	10.6	7.2 ± 1.6	0.42 ± 0.064	RF (resistance factor) ISMR1 (T. b. brucei ISMR1): 6.9
CC[n+]1c(-c2ccccc2)c2cc(N/N=N/c3cccc(C(=N)N)c3)ccc2c2ccc(N)cc21 [Isometamidium]	–	–	–	–	–	–	–	3.1 ± 0.5	0.75 ± 0.14	1.2	0.56 ± 0.13	0.65 ± 0.085	RF (resistance factor) ISMR1 (T. b. brucei ISMR1): 4.81; RF (resistance factor) B48 (T. b. brucei B48): 0.85
Nc1ncnc2c1c(-c1ccccn1)cn2[C@@H]1O[C@H](CO)[C@@H](O)[C@H]1O [TH1008, 4-amino-5-(pyrid-2-yl)-N7-(β-D-ribofuranosyl)-pyrrolo[2,3-d]pyrimidine]	0.031	–	–	5.02	–	–	0.36	0.43 ± 0.07	0.4 ± 0.09	2.4	0.27 ± 0.04	0.17 ± 0.04	selectivity index for T. b. rhodesiense ([1]; MRC-5 versus T. b. rhodesiense): ~500; detectability of parasites in the peripheral blood (T. b. brucei Squib 427; 25 mg/kg PO b.i.d. for 5 days): undetectable from 8 dpi onwards; parasites in the peripheral blood, mean Log10 (T. b. brucei Squib 427; 4 dpi, 25 mg/kg PO b.i.d. for 5 days): 7.5; parasitological cure (sub-inoculation in naive mice) (T. b. brucei Squib 427; animals surviving until day 21 post infection): total parasitological cure; clinical symptoms of trypanosomiasis / parasitemia (T. b. brucei Squib 427): no clinical symptoms of trypanosomiasis were observed; adverse drug effects (T. b. brucei Squib 427; mice, 5 days treatment): No signs of adverse drug effects were observed; RF (resistance factor) ISMR1 (T. b. brucei ISMR1): 2.5; RF (resistance factor) B48 (T. b. brucei B48): 1.6; anti-trypanosomal activity against T. brucei, in words (T. brucei Squib 427): nanomolar antitrypanosomal activity; selectivity index (SI) for T. b. brucei (T. brucei Squib 427): 50
Nc1ncnc2c1c(-c1ccc(Cl)c(Cl)c1)cn2[C@@H]1O[C@H](CO)[C@@H](O)[C@H]1O [FH3147, 4-amino-5-(3,4-dichlorophenyl)-N7-(β-D-ribofuranosyl)-pyrrolo[2,3-d]pyrimidine]	0.32	14.7	14.7	0.19	0.02	221 to 223 °C	3.07	–	–	–	–	–	selectivity index (SI) for T. b. brucei (T. brucei Squib 427): ~5
Nc1ncnc2c1c(-c1ccc(OC(F)(F)F)cc1)cn2[C@@H]1O[C@H](CO)C[C@H]1O [FH9577, 4-amino-5-(4-trifluoromethoxyphenyl)-N7-(3′-deoxy-β-D-ribofuranosyl)-pyrrolo[2,3-d]pyrimidine]	–	–	–	–	–	–	–	–	–	–	–	–	EC50 [1, 12]: 9.8 µM; EC50 (MRC-5 fibroblasts; Table 1): 40.4 µM; EC50 (MRC-5 fibroblasts; Table 2): 40.4 µM; EC50 [3, 13]: 1.39 µM; EC50 ([4]; Table 3): 0.79 µM; EC50 (T. brucei Squib 427; [14]): 24.5 µM
Nc1ncnc2c1ccn2[C@@H]1O[C@H](CO)[C@@H](O)[C@H]1O [FH5284, tubercidin]	–	–	–	0.34	–	–	0.48	1.7 ± 0.5	2.6 ± 0.7	> 17 and 17.2	4.3 ± 1.3	0.15 ± 0.03	EC50 [2]: 2.23 µM
